In US7384629B2, “Biological control of nematodes with Hirsutella minnesotensis” (Regents of the University of Minnesota, priority 2000, dated 2008):
Where two headings read alike, the source gives them in different places.

Columns and labels:
Hirsutella rhossiliensis [1] = details: for Growth rate mm-in-diam, on agar: named vitamin excluded from medium with all other vitamins; for Growth rate mm-in-diam, on agar / Sporulation 10^3/cm^2, on agar / growth in liquit culture (visual rating): 5 weeks; for Spore germination %, on agar / Sporulation 10^3/cm^2, on agar / growth in liquit culture (visual rating): named vitamin excluded
Hirsutella rhossiliensis [2] = experiment: Effect of nitrogen source on growth, sporulation and spore germination; details: for Spore germination %, on agar / Sporulation 10^3/cm^2, on agar / growth in liquit culture (visual rating): nitrogen source; for Growth mm-in-diam, on agar: nitrogen source 0.3296 g/L nitrogen; for Growth mm-in-diam, on agar / Sporulation 10^3/cm^2, on agar / growth in liquit culture (visual rating): 5 weeks
Hirsutella rhossiliensis [3] = experiment: Effect of carbon source on growth, sporulation and spore germination; details: for Growth mm-in-diam, on agar: carbon source 4 g/liter carbon; for Growth mm-in-diam, on agar / Sporulation 10^3/cm^2, on agar: 5 weeks; for Sporulation 10^3/cm^2, on agar / Spore germination %, on agar: carbon source; for Spore germination %, on agar: after incubation for 24 hr

| Compound | Spore germination %, on agar (Hirsutella rhossiliensis [2]; isolate ATCC46487) [%] | Spore germination %, on agar (Hirsutella rhossiliensis [2]; isolate JA16-1) [%] | Spore germination %, on agar (Hirsutella rhossiliensis [2]; isolate OWVT-1) [%] | Growth mm-in-diam, on agar (Hirsutella rhossiliensis [2]; isolate ATCC46487) [mm-in-diam] | Growth mm-in-diam, on agar (Hirsutella rhossiliensis [2]; isolate JA16-1) [mm-in-diam] | Growth mm-in-diam, on agar (Hirsutella rhossiliensis [2]; isolate OWVT-1) | growth in liquit culture (visual rating) (Hirsutella rhossiliensis [2]; isolate OWVT-1) | growth in liquit culture (visual rating) (Hirsutella rhossiliensis [2]; isolate JA16-1) | other results |
| --- | --- | --- | --- | --- | --- | --- | --- | --- | --- |
| Nc1nc2ncc(CNc3ccc(C(=O)N[C@@H](CCC(=O)O)C(=O)O)cc3)nc2c(=O)[nH]1 [Folic acid] | – | – | – | – | – | – | – | – | Growth rate mm-in-diam, on agar (Hirsutella rhossiliensis [1]; isolate ATCC46487): 39.3 mm-in-diam; Growth rate mm-in-diam, on agar (Hirsutella rhossiliensis [1]; isolate JA16-1): 19.7 mm-in-diam; Growth rate mm-in-diam, on agar (Hirsutella rhossiliensis [1]; isolate OWVT-1): 28.7 mm-in-diam; Spore germination %, on agar (Hirsutella rhossiliensis [1]; isolate ATCC46487): 82.2%; Sporulation 10^3/cm^2, on agar (Hirsutella rhossiliensis [1]; isolate ATCC46487): 59.7 10^3/cm^2; Spore germination %, on agar (Hirsutella rhossiliensis [1]; isolate JA16-1): 87.8%; Sporulation 10^3/cm^2, on agar (Hirsutella rhossiliensis [1]; isolate JA16-1): 24.2 10^3/cm^2; growth in liquit culture (visual rating) (Hirsutella rhossiliensis [1]; isolate JA16-1): I; Spore germination %, on agar (Hirsutella rhossiliensis [1]; isolate OWVT-1): 61.1%; Sporulation 10^3/cm^2, on agar (Hirsutella rhossiliensis [1]; isolate OWVT-1): 15.4 10^3/cm^2 |
| N[C@@H](Cc1ccc(O)cc1)C(=O)O [L-tyrosine] | 91.1 | 86.7 | 67.8 | – | – | – | – | – | – |
| CC(C)(CO)C(O)C(=O)NCCC(=O)O (racemic) [DL-pantothenic acid] | – | – | – | – | – | – | – | – | Growth rate mm-in-diam, on agar (Hirsutella rhossiliensis [1]; isolate ATCC46487): 39.5 mm-in-diam; Growth rate mm-in-diam, on agar (Hirsutella rhossiliensis [1]; isolate JA16-1): 18.8 mm-in-diam; Growth rate mm-in-diam, on agar (Hirsutella rhossiliensis [1]; isolate OWVT-1): 29.3 mm-in-diam; Spore germination %, on agar (Hirsutella rhossiliensis [1]; isolate ATCC46487): 72.2%; Sporulation 10^3/cm^2, on agar (Hirsutella rhossiliensis [1]; isolate ATCC46487): 28.6 10^3/cm^2; Spore germination %, on agar (Hirsutella rhossiliensis [1]; isolate JA16-1): 88.9%; Sporulation 10^3/cm^2, on agar (Hirsutella rhossiliensis [1]; isolate JA16-1): 17.1 10^3/cm^2; growth in liquit culture (visual rating) (Hirsutella rhossiliensis [1]; isolate JA16-1): I; Spore germination %, on agar (Hirsutella rhossiliensis [1]; isolate OWVT-1): 55.6%; Sporulation 10^3/cm^2, on agar (Hirsutella rhossiliensis [1]; isolate OWVT-1): 9.9 10^3/cm^2 |
| O=C(O)c1cccnc1 [Nicotinic acid] | – | – | – | – | – | – | – | – | Growth rate mm-in-diam, on agar (Hirsutella rhossiliensis [1]; isolate ATCC46487): 40.5 mm-in-diam; Growth rate mm-in-diam, on agar (Hirsutella rhossiliensis [1]; isolate JA16-1): 20.0 mm-in-diam; Growth rate mm-in-diam, on agar (Hirsutella rhossiliensis [1]; isolate OWVT-1): 27.7 mm-in-diam; Spore germination %, on agar (Hirsutella rhossiliensis [1]; isolate ATCC46487): 77.8%; Sporulation 10^3/cm^2, on agar (Hirsutella rhossiliensis [1]; isolate ATCC46487): 30.1 10^3/cm^2; Spore germination %, on agar (Hirsutella rhossiliensis [1]; isolate JA16-1): 94.4%; Sporulation 10^3/cm^2, on agar (Hirsutella rhossiliensis [1]; isolate JA16-1): 12.2 10^3/cm^2; growth in liquit culture (visual rating) (Hirsutella rhossiliensis [1]; isolate JA16-1): I; Spore germination %, on agar (Hirsutella rhossiliensis [1]; isolate OWVT-1): 57.8%; Sporulation 10^3/cm^2, on agar (Hirsutella rhossiliensis [1]; isolate OWVT-1): 10.7 10^3/cm^2 |
| N[C@@H](Cc1ccccc1)C(=O)O [L-Phenylalanine] | 77.8 | 86.7 | 68.3 | 34.3 | 11.7 | 17.5 mm-in-diam | IV (IV = the pellet diameter larger than 1 cm, but the total volume distribution less than 5 ml) | – | Sporulation 10^3/cm^2, on agar (Hirsutella rhossiliensis [2]; isolate ATCC46487): 7.9 10^3/cm^2; Sporulation 10^3/cm^2, on agar (Hirsutella rhossiliensis [2]; isolate JA16-1): 79.0 10^3/cm^2; Sporulation 10^3/cm^2, on agar (Hirsutella rhossiliensis [2]; isolate OWVT-1): 15.9 10^3/cm^2 |
| NC(CCC(=O)O)C(=O)O (racemic) [DL-Glutamic acid] | 74.4 | 90.0 | 48.9 | 40.8 | 12.8 | 18.7 mm-in-diam | III (III = hyphae growth or colonies form a pellet, less than 2.5 ml) | – | – |
| Casein | 96.7 | 90.0 | 44.4 | – | – | 23.0 mm-in-diam | – | – | Sporulation 10^3/cm^2, on agar (Hirsutella rhossiliensis [2]; isolate OWVT-1): 43.6 10^3/cm^2 |
| CSCCC(N)C(=O)O (racemic) [DL-Methionine] | 74.4 | 70.0 | 63.3 | 11.7 | 0.0 | 0.0^ mm-in-diam | I | I | Sporulation 10^3/cm^2, on agar (Hirsutella rhossiliensis [2]; isolate ATCC46487): 3.2 10^3/cm^2; growth in liquit culture (visual rating) (Hirsutella rhossiliensis [2]; isolate ATCC46487): III (III = hyphae growth or colonies form a pellet, less than 2.5 ml); Sporulation 10^3/cm^2, on agar (Hirsutella rhossiliensis [2]; isolate JA16-1): 10.8 10^3/cm^2; Sporulation 10^3/cm^2, on agar (Hirsutella rhossiliensis [2]; isolate OWVT-1): 0.0 10^3/cm^2 |
| N[C@@H](CSSC[C@H](N)C(=O)O)C(=O)O [L-cystine] | 14.4 | 4.4 | 5.6 | 0.0 | 0.0 | 0.0^ mm-in-diam | – | 0 | – |
| O=[N+]([O-])[O-].[Na+] [NaNO3] | 86.7 | 73.3 | 55.6 | 39.2 | 15.3 | 21.7 mm-in-diam | – | I | Sporulation 10^3/cm^2, on agar (Hirsutella rhossiliensis [2]; isolate ATCC46487): 10.0 10^3/cm^2; growth in liquit culture (visual rating) (Hirsutella rhossiliensis [2]; isolate ATCC46487): IV (IV = the pellet diameter larger than 1 cm, but the total volume distribution less than 5 ml); Sporulation 10^3/cm^2, on agar (Hirsutella rhossiliensis [2]; isolate JA16-1): 6.4 10^3/cm^2; Sporulation 10^3/cm^2, on agar (Hirsutella rhossiliensis [2]; isolate OWVT-1): 35.9 10^3/cm^2 |
| N[C@@H](Cc1c[nH]cn1)C(=O)O [L-Histidine] | 82.2 | 82.2 | 65.6 | 36.3 | 8.5 | 12.8 mm-in-diam | III (III = hyphae growth or colonies form a pellet, less than 2.5 ml) | – | Sporulation 10^3/cm^2, on agar (Hirsutella rhossiliensis [2]; isolate ATCC46487): 1.8 10^3/cm^2; Sporulation 10^3/cm^2, on agar (Hirsutella rhossiliensis [2]; isolate JA16-1): 3.4 10^3/cm^2; Sporulation 10^3/cm^2, on agar (Hirsutella rhossiliensis [2]; isolate OWVT-1): 2.1 10^3/cm^2 |
| NCC(=O)O [Glycine] | 75.6 | 93.3 | 60.0 | 41.5 | 7.5 | 10.7 mm-in-diam | III (III = hyphae growth or colonies form a pellet, less than 2.5 ml) | III (III = hyphae growth or colonies form a pellet, less than 2.5 ml) | – |
| NC(CO)C(=O)O (racemic) [DL-Serine] | 84.4 | 87.8 | 72.2 | 45.3 | 10.2 | 17.2 mm-in-diam | IV (IV = the pellet diameter larger than 1 cm, but the total volume distribution less than 5 ml) | III (III = hyphae growth or colonies form a pellet, less than 2.5 ml) | – |
| C[C@@H](O)[C@H](N)C(=O)O (racemic) [DL-Threonine] | 93.3 | 83.3 | 48.9 | 25.4 | 8.3 | 9.0 mm-in-diam | III (III = hyphae growth or colonies form a pellet, less than 2.5 ml) | IV (IV = the pellet diameter larger than 1 cm, but the total volume distribution less than 5 ml) | – |
| NC(N)=O [Urea] | 91.1 | 85.6 | 64.4 | 43.5 | 14.0 | 16.7 mm-in-diam | – | – | growth in liquit culture (visual rating) (Hirsutella rhossiliensis [2]; isolate ATCC46487): IV (IV = the pellet diameter larger than 1 cm, but the total volume distribution less than 5 ml) |
| N[C@@H](CC(=O)O)C(=O)O [L-Aspartic acid] | 93.3 | 90.0 | 53.3 | 43.8 | 13.3 | 16.8 mm-in-diam | III (III = hyphae growth or colonies form a pellet, less than 2.5 ml) | IV (IV = the pellet diameter larger than 1 cm, but the total volume distribution less than 5 ml) | – |
| O=C(O)[C@@H]1CCCN1 [L-proline] | 86.7 | 86.7 | 60.0 | 47.2 | 17.0 | 23.8 mm-in-diam | III (III = hyphae growth or colonies form a pellet, less than 2.5 ml) | – | – |
| NC(=O)C[C@H](N)C(=O)O [L-Asparagine] | 93.3 | 85.5 | 70.0 | 51.8 | 16.5 | 20.8 mm-in-diam | III (III = hyphae growth or colonies form a pellet, less than 2.5 ml) | IV (IV = the pellet diameter larger than 1 cm, but the total volume distribution less than 5 ml) | – |
| OC[C@H]1O[C@H](O[C@H]2O[C@H](CO)[C@@H](O)[C@H](O)[C@H]2O)[C@H](O)[C@@H](O)[C@@H]1O [D(+) trehalose] | – | – | – | – | – | – | – | – | Growth mm-in-diam, on agar (Hirsutella rhossiliensis [3]; isolate ATCC46487): 36.5 mm-in-diam; Growth mm-in-diam, on agar (Hirsutella rhossiliensis [3]; isolate JA16-1): 18.3 mm-in-diam; Growth mm-in-diam, on agar (Hirsutella rhossiliensis [3]; isolate OWVT-1): 30.2 mm-in-diam; Sporulation 10^3/cm^2, on agar (Hirsutella rhossiliensis [3]; isolate ATCC46487): 172.6 10^3/cm^2; Spore germination %, on agar (Hirsutella rhossiliensis [3]; isolate ATCC46487): 60.0%; Sporulation 10^3/cm^2, on agar (Hirsutella rhossiliensis [3]; isolate JA16-1): 5.2 10^3/cm^2; Spore germination %, on agar (Hirsutella rhossiliensis [3]; isolate JA16-1): 68.9%; Sporulation 10^3/cm^2, on agar (Hirsutella rhossiliensis [3]; isolate OWVT-1): 49.2 10^3/cm^2; Spore germination %, on agar (Hirsutella rhossiliensis [3]; isolate OWVT-1): 62.2% |
